Structures can show the parent of a compound that is named as a salt.
Target: T1, steroid 17α-hydroxylase and/or steroid C17-20 lyase (Rattus norvegicus, UniProt P11715)
T1 construct: the testis of rats (SD, male) was homogenized and centrifuged to obtain microsome; from tissue; host or cells: rat (SD, male) testis microsomes
T1 sequence (P11715 1-507): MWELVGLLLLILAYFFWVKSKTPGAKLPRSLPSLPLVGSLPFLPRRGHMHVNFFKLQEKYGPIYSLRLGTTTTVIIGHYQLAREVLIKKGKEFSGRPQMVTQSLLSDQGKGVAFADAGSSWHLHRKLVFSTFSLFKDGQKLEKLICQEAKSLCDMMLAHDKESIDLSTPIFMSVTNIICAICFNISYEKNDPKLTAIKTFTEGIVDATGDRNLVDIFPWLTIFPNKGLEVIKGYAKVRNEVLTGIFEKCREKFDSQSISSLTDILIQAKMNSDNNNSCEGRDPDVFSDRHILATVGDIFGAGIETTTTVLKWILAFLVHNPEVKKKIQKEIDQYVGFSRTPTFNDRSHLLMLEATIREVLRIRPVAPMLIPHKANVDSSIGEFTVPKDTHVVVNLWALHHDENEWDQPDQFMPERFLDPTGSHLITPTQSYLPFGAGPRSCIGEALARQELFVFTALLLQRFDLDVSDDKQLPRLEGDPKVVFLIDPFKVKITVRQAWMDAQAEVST
Experiment: Measurement of steroid 17α-hydroxylase and/or steroid C17-20 lyase inhibitory activity (rat testis microsome, HPLC)
Type: biochemical
Conditions: Enzyme source: rat testis microsome; test compound 300 nM; substrate 25 μM 17α-hydroxyprogesterone; NADPH 500 μM; 20 minutes at 37° C.
Procedure: An experiment was carried out according to the method of T. Sergejew and R. W. Hartmann (J. Enzyme Inhibition, 8, 113(1994)). That is, the testis of rats (SD, male) was homogenized and centrifuged to obtain microsome. […] After the addition of 100 μl of microsome protein solution, the protein contentration was adjusted to 0.1 mg/ml by 50 mM phosphate buffer solution (pH 7.4), 140 μl of 125 nmol NADPH solution, and 10 μl of 6.25 nmol 17α-hydroxyprogesterone, the mixture was incubated for 20 minutes at 37° C. 50 μl of 1N hydrochloric acid and 1000 μl of ethyl acetate were sequentially added to the mixture. The mixture was shaken and centrifuged. The ethyl acetate layer was washed with 250 μl of 50 mM phosphate buffer solution (pH 7.4) and 50 μl of 1N hydrochloric acid, centrifuged, and concentrated. The concentrate was dissolved in 100 μl of acetonitrile. 10 μl of this solution was charged to high performance liquid chromatography. The amounts of the substrate and the product (androstenedione and testosterone) were measured to calculate the enzyme activity. In this experiment, a sample without the test compound was provided as a control group. Steroid 17α-hydroxylase and/or steroid C17-20-lyase inhibitory activity (%) was calculated by the following equation (1) using the amounts of the substrate and the product obtained.
For `COc1ccc2c(-c3ccccn3)csc2c1.Cl` [Example 3, 2-[6-methoxybenzo[b]thiophen-3-yl]pyridine hydrochloride], the inhibition at 0.3 µM was 9%. In the case of `Oc1ccc2c(-c3ccncc3)csc2c1` [Example 6, 3-(4-pyridyl)benzo[b]thiophen-6-ol], the inhibition at 0.3 µM is reported as 3%. In the case of `Oc1cccc(-c2ccc3c(-c4cccnc4)csc3c2)c1` [Example 17, 3-[3-(3-pyridyl)benzo[b]thiophen-6-yl]-phenol], the inhibition at 0.3 µM is reported as 100%. For `c1cncc(-c2ccc3c(-c4cccnc4)csc3c2)c1` [Example 20, 3-[6-(3-pyridyl)benzo[b]thiophen-3-yl]pyridine], the inhibition at 0.3 µM was 100%. `O=[N+]([O-])c1cccc(-c2ccc3c(-c4cccnc4)csc3c2)c1` [Example 53, 3-[6-(3-nitrophenyl)benzo[b]thiophen-3-yl]pyridine] gave an inhibition at 0.3 µM of 86%. In the case of `CC(C)Nc1ccc2c(-c3cccnc3)csc2c1` [Example 54, isopropyl[3-(3-pyridyl)benzo[b]thiophen-6-yl]amine], the inhibition at 0.3 µM is reported as 98%. `c1cncc(-c2csc3cc(N4CCOCC4)ccc23)c1` [Example 55, 4-[3-(3-pyridyl)benzo[b]thiophen-6-yl]morpholine dihydrochloride] gave an inhibition at 0.3 µM of 94%. In the case of `CC(=O)Nc1ccc2c(-c3cccnc3)csc2c1` [Example 56, N1-[3-(3-pyridyl)benzo[b]thiophen-6-yl]acetamide], the inhibition at 0.3 µM is reported as 63%.

Tested on: not given
Experiment: not given
Conditions: not given
In the case of `COc1ccc2c(-c3ccccn3)csc2c1.Cl` [Example 3, 2-[6-methoxybenzo[b]thiophen-3-yl]pyridine hydrochloride], the melting point is reported as 205.5 to 207 °C (dec.). `Oc1ccc2c(-c3ccncc3)csc2c1` [Example 6, 3-(4-pyridyl)benzo[b]thiophen-6-ol] gave a melting point of 246 to 250 °C. Work on `Oc1cccc(-c2ccc3c(-c4cccnc4)csc3c2)c1` [Example 17, 3-[3-(3-pyridyl)benzo[b]thiophen-6-yl]-phenol] yielded a melting point of 188.5 to 189.5 °C. Molecule `c1cncc(-c2ccc3c(-c4cccnc4)csc3c2)c1` [Example 20, 3-[6-(3-pyridyl)benzo[b]thiophen-3-yl]pyridine] has a melting point of 131.5 to 133 °C.

Reference: patent US20030130340A1, “Novel benzothiophene derivatives” (Daiichi Pharmaceutical Co. Ltd., priority 2000, published 2003)
